{"source": "paper PMC6203352", "about": "“Involvement of VNUT-exocytosis in transient receptor potential vanilloid 4-dependent ATP release from gastrointestinal epithelium” (PLoS ONE, 2018)", "assay_type_in_all_cases": "cell-based", "key": {"TRPV4 [1]": {"molecular_target": "T1, TRPV4 (Homo sapiens, UniProt Q9HBA0)", "T1 sequence (Q9HBA0 whole entry)": "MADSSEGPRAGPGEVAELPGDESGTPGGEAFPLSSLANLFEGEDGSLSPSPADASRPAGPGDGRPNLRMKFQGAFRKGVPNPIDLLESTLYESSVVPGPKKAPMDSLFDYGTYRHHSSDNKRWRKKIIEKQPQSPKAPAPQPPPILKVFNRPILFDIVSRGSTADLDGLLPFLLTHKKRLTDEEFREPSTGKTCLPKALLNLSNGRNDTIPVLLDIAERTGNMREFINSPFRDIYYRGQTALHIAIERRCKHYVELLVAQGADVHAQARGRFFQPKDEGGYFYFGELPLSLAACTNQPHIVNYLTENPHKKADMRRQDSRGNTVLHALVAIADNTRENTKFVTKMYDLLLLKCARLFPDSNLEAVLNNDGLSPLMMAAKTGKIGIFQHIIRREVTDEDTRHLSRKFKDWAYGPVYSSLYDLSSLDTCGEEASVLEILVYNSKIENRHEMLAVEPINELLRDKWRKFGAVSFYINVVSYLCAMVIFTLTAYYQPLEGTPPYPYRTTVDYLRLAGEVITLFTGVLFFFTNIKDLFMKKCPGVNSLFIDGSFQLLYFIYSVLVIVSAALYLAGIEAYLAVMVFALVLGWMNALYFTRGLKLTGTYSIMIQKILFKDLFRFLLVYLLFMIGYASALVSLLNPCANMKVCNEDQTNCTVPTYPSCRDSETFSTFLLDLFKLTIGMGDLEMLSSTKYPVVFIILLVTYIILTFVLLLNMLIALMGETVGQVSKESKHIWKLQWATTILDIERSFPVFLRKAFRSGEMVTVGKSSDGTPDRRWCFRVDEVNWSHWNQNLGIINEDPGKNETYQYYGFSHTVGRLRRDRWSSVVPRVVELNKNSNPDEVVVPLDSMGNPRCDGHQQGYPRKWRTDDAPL", "assay": "fura-2 Ca2+ imaging dose-response in CCD […] cells (endogenous TRPV4), blocked by RN1734"}, "TRPV4 [2]": {"molecular_target": "T1, TRPV4", "assay": "fura-2 Ca2+ imaging dose-response in CCD […] cells (endogenous TRPV4)"}, "TRPV4 [3]": {"molecular_target": "T1, TRPV4", "assay": "inhibition of GSK101 ([…])-induced Ca2+ response, fura-2 imaging in CCD […] cells (endogenous TRPV4)"}}, "data": [{"smiles": "CCCCC/C=C\\C/C=C\\CC1OC1C/C=C\\CCCC(=O)OC", "note": "(stereo not drawn) [8,9-EET methylestel]", "values": [{"measurement": "EC50", "setting": "TRPV4 [1]", "value": 111, "unit": "nM"}]}, {"smiles": "CC(C)C[C@H](NC(=O)c1cc2ccccc2s1)C(=O)N1CCN(C(=O)[C@H](CO)NS(=O)(=O)c2ccc(Cl)cc2Cl)CC1", "note": "[GSK101, N-((1S)-1-{[4-((2S)-2-{[(2,4-dichlorophenyl)sulfonyl]amino}-3-hydroxypropanoyl)-1-piperazinyl]carbonyl}-3-methylbutyl)-1-benzothiophene-2-carboxamide]", "values": [{"measurement": "EC50", "setting": "TRPV4 [2]", "value": 231, "unit": "nM"}]}, {"smiles": "CC(C)NCCN(C(C)C)S(=O)(=O)c1ccc(Cl)cc1Cl", "note": "[RN1734]", "values": [{"measurement": "IC50", "setting": "TRPV4 [3]", "value": 0.703, "unit": "nM"}]}]}
